Measurements as given in article PMC13416357 (Molecules, 2026).
Read-outs that look alike come from different tables or passages of the source.

Experiments:
recombinant aSyn fibrils [1] = molecular target: T1, recombinant aSyn fibrils (Homo sapiens, UniProt P37840); design: method as in PMID 40256311; conditions: in vitro binding properties of lead M503-1619; cited from earlier work
Aβ = molecular target: T2, Aβ (Homo sapiens, UniProt P05067); design: method as in PMID 40256311; conditions: in vitro binding properties of lead M503-1619; cited from earlier work
T2 construct: from tissue; host or cells: Alzheimer disease (AD) brain tissue homogenate

recombinant aSyn fibrils [2] = molecular target: T1, recombinant aSyn fibrils; test: In vitro radioligand binding assay with [^3H]BF2846 in recombinant aSyn fibrils
Experimental: The affinity of the target compounds for aSyn was performed in recombinant human fibrils using an in vitro radioligand binding assay with [^3H]BF2846 as the radioligand, which binds to site 9 in recombinant aSyn fibrils [16].
In vitro radioligand biding assays were performed by using the pervious published method [12, 15] to measure the affinity of the target compounds for aSyn and Aβ. In brief, the radioligand for the aSyn assay was [^3H]BF2846 and the assay was conducted using recombinant fibrils. Three concentrations of test compounds (10 nM, 100 nM and 1 µM) were incubated with ~4 nM [^3H]BF2846 and 50 nM aSyn fibrils in a working buffer (50 mM Tris-HCl, 0.01% bovine serum albumin) at 37 °C for 1.5 h. The mixture (150 µL) was separated by filtration through a Unifilter-96 system (PerkinElmer, Shelton, CT, USA) and washed with an ice-cold buffer (10 mM Tris-HCl (pH 7.4), 15 mM NaCl and 20% EtOH) before scintillation counting. Total binding was defined in the absence of competitor, and non-specific binding was determined using 100 nM unlabeled BF2846. […] Data from three independent experiments were analyzed by non-linear regression in GraphPad Prism v.9.3.1 (GraphPad Inc., San Diego, CA, USA) to calculate Ki values using the equation, Ki = EC50/(1 + [radioligand]/Kd).

T2 sequence (P05067 672-713 limits assumed): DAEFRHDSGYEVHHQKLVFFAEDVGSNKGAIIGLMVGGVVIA

Row | Ki (recombinant aSyn fibrils [2]) [nM] | Structure (SMILES) | Ki (recombinant aSyn fibrils [1]) [nM] | Ki (Aβ) [nM]
1 |  | COc1ccc(NC(=O)c2cnc(N3CCN(c4ccccn4)CC3)nc2N)cc1 [Compound M503-1619] | 6.5 | 390
2 | 41.9 ± 13.8 | COc1ccc(NC(=O)c2cnc(N3CCN(c4ncccn4)CC3)nc2N)cc1 [GT-9-40] |  | 
